These results are taken from PMC10096391, “Discovery of N,4-Di(1H-pyrazol-4-yl)pyrimidin-2-amine-Derived CDK2 Inhibitors as Potential Anticancer Agents: Design, Synthesis, and Evaluation” (Molecules, 2023).

Assay [1] concerns MDA-MB-231 breast cancer cells. The experiment in a line: Cell viability assay (MTT/resazurin), MDA-MB-231. It counts as cell-based. To be noted: Homo sapiens, read-out: Antiproliferative Activity, GI50. From the text:
(§1) Cancer cell lines derived from leukemia (MV4-11 and U937), breast (MCF7 (Rb-positive) and MDA-MB-231(Rb-negative)), and ovarian (A2780, OVCAR5, OAW28, OV90, Cov318, and Cov504) cancers, and glioblastoma (U87, T98G and U251) were acquired from the cell bank at Drug Discovery and Development, University of South Australia, and cultured according to the American Type Culture Collection (ATCC) recommendation in Roswell Park Memorial Institute (RPMI)-1640, Dulbecco’s Modified Eagle’s Medium (DMEM), or Minimum Essential Media (MEM), with 10% fetal bovine serum (Sigma-Aldrich, Castle Hill, NSW, Australia) within a humidified incubator at 37 °C in the presence of 5% CO2.
(§2) The MTT (Life Technologies, Mulgrave, VIC, Australia) and resazurin (Sigma-Aldrich) assays were used to determine the antiproliferative activities of the compounds initially at 1 µM against the cancer cell lines stated above.
For orientation: Alamar Blue is a resazurin reagent that responds to reducing activity.

Assay [2] deals with OV90 ovarian cancer cells. The experiment in a line: Cell viability assay (MTT/resazurin), OV90. As to conditions: Homo sapiens, OV-90, read-out: Antiproliferative Activity, GI50. It counts as cell-based.
Text: as §1, §2

In assay [3] the test system is A2780 cells. The experiment in a line: Colony formation (crystal violet), A2780. It counts as cell-based. As to conditions: A2780, 10 days; 15 at 0.5 and 2 µM, CYC065 at 0.5 µM. The method, then: (§3) Briefly, ovarian cancer cells (i.e., A2780, OVCAR5, and OV90) seeded in six-well plates were adhered for 6 h and treated with 15. The medium that contained the compound was then changed every 72 h. Ten days after treatment, the cells were washed with PBS, fixed, and stained with crystal violet staining solution (0.05% crystal violet, 1% formaldehyde, 1% PBS, and 1% ethanol), and colonies were quantified using ImageJ software (National Institute of Health, Maryland, USA), with data presented as percentages of the control cells.

Assay [4] deals with OVCAR5 ovarian cancer cells. The experiment in a line: Cell viability assay (MTT/resazurin), OVCAR5. It counts as cell-based. As to conditions: Homo sapiens, OVCAR-5, read-out: Antiproliferative Activity, GI50.
Text: as §1, §2

The test system of assay [5] is panel of 13 cancer cell lines. Briefly: Antiproliferative activity, cancer cell line panel. It counts as cell-based. To be noted: all cancer cell lines tested; read-out: GI50 range over the cancer cell line panel.
Text: as §1, §2

For assay [6], the system named is Cov318 ovarian cancer cells. The experiment in a line: Cell viability assay (MTT/resazurin), Cov318. It counts as cell-based. To be noted: read-out: Antiproliferative Activity, GI50.
Text: as §1, §2

The target of assay [7] is CDK2/cyclin E (CDK2E) (Homo sapiens, UniProt P24941). The experiment in a line: ADP-Glo kinase assay, CDK2/cyclin E. It counts as biochemical. To be noted: apparent Ki from IC50, ADP-Glo. On the procedure: The luminescent ADP-Glo™ assay, which measures the amount of ADP formed in a kinase reaction as described previously, was used to determine the kinase inhibition profile of the compounds. […] Ki values were calculated from their corresponding IC50 values (the concentrations of inhibitors that inhibit the kinase activity by 50%) and the Michaelis–Menten constant (Km) of ATP for each kinase using the Cheng–Prusoff equation as previously stated. In brief, 1 μL of each concentration of the test compounds was added to the respective wells, and to it were added 1 μL of the kinases and their respective substrates, diluted to the desired concentration in kinase reaction buffer ([…] tris base pH 7.5, 20 mM MgCl2, 0.4 µM dithiothreitol, and 0.1 mg/mL bovine serum albumin), and the pH was adjusted by adding 1 μL of a two-fold diluted kinase reaction buffer. To initiate the kinase activity, 1 μL of ATP solution (the concentration varies depending on the type of kinase under investigation) was added to each well, and the mixture was incubated at room temperature (20 to 22 °C) for 30–60 min depending on the kinase being tested. The reaction was then halted, 5 μL of the ADP-Glo reagent was added to each well (removing any unreacted ATP), and it was incubated at room temperature for 40 min. Then, to each well, 10 μL of the kinase detection reagent containing luciferin was added, which was incubated once more at room temperature in the dark for 30 min and the luminescence was measured by an EnVision® multi-label plate reader with an integration time of 1.5 s per well. Positive controls (the wells without the inhibitor) and negative or blank controls (the wells without the inhibitor and the enzyme, but with 1 × kinase reaction buffer) were also determined in 2.5% DMSO.
The percentage of kinase inhibition was determined using the following equation: % Residual kinase activity=Luminescence in the presence of inhibitor−Luminescence of blank control/Luminescence in the absence of inhibitor−Luminescence of blank control×100%%kinase inhbition=100%−%Residual kinase activity
Km is defined as the concentration of ATP or the substrate required to produce 50% of the maximal reaction rate in the kinase reaction. Therefore, since we used the concentration of ATP and the substrate at their Km values, Ki simply equals IC50/2 assuming these inhibitors are ATP-competitive based on the Cheng–Prusoff equation: Ki = IC50/(1 + ([ATP]/Km(ATP))) where [ATP] is the ATP concentration used for the IC50 determination and Km(ATP) for each kinase was determined experimentally.

Assay [8] concerns A2780 cells. The experiment in a line: Cell cycle analysis by flow cytometry, A2780. It counts as cell-based. As to conditions: A2780, 2 µM, 48 h. The method, then: The effect of the compounds on cell cycle distribution was evaluated following a previously reported method. Briefly, six-well plates (Sigma-Aldrich, NSW, Australia) were seeded with about 1–2 × 10^5 cells/well in 2 mL growth medium, incubated at 37 °C and 5% CO2 overnight, and treated with various concentrations of the test compounds and incubated for 48 h. The wells were collected by trypsinization, transferred into fluorescence-activating cell sorting (FACS) tubes, washed with 1 × phosphate-buffered saline (1 × PBS) twice, fixed in 70% (v/v) ice-cold ethanol for 15 min, and centrifuged at 300× g for 5 min. The cell pellets were then collected, stained with 200 µL of the cell cycle solution (comprising 50.0 μg/mL PI, 0.1 mg/mL RNase A, and 0.05% Triton X-100), and incubated for 1.5 h at room temperature in the dark. Finally, the DNA content was determined by a flow cytometer (CytoFLEX) and analyzed by CytExpert 2.1 software (Beckman Coulter, Brea, CA, USA).
For orientation: In flow cytometry, cells or beads pass a laser one at a time.

Assay [9] deals with Cov504 ovarian cancer cells. Briefly: Cell viability assay (MTT/resazurin), Cov504. It counts as cell-based. To be noted: read-out: Antiproliferative Activity, GI50.
Text: as §1, §2

Assay [10] deals with MCF7 breast cancer cells. The experiment in a line: Cell viability assay (MTT/resazurin), MCF7. It counts as cell-based. As to conditions: Homo sapiens, read-out: Antiproliferative Activity, GI50.
Text: as §1, §2

Assay [11] concerns OVCAR5 cells. The experiment in a line: Western blot analysis of OVCAR5 cells. It counts as cell-based. On the procedure: Western blot analysis of the compounds was carried out as previously reported. The antibodies were purchased from Cell Signaling Technology (Danvers, MA, USA).
For assay [12], the system named is OVCAR5 cells. Briefly: Colony formation (crystal violet), OVCAR5. To be noted: OVCAR5, 10 days; 15 at 0.5 and 2 µM, CYC065 at 0.5 µM. It counts as cell-based. The method, then: as §3
Assay [13] concerns T98G glioblastoma cells. The experiment in a line: Cell viability assay (MTT/resazurin), T98G. It counts as cell-based. As to conditions: Homo sapiens, read-out: Antiproliferative Activity, GI50.
Text: as §1, §2

The term GI50 denotes the concentration giving 50% growth inhibition. Turning to `Cn1cc(-c2nc(Nc3cn[nH]c3)ncc2Cl)cn1` [Compound 15, 5-Chloro-4-(1-methyl-1H-pyrazol-4-yl)-N-(1H-pyrazol-4-yl)pyrimidin-2-amine], the 50% growth inhibitory concentration (GI50) in assay [1] was 0.458 µM; in assay [2], 0.39 µM; in assay [4], 0.15 µM; in [5] it was 0.127 to 0.56 µM; in assay [6] it was 0.488 µM; in [9], 0.54 µM. For the same molecule, the GI50 turned out to be 0.342 µM in [10] and 0.38 µM in assay [13]. The “effect on colony formation” value in assay [3] and in [12] was “inhibited” each time. Further, the Ki in assay [7] came out at 0.005 µM. Further, the S-phase cells in assay [8] amounted to 26%. The “p-FAK(Ser732) level (CDK5 kinase activity in cells)” value in assay [11] (OVCAR5, 2 µM, 48 h) is on record as “completely abolished”. Further, the “p-RNAPol-II(Ser2) level (CDK9 kinase activity in cells)” value in assay [11] (OVCAR5, 2 µM, 48 h) is “completely abolished”. In addition, the “p-Rb(Thr821) level (CDK2 kinase activity in cells)” value in assay [11] (OVCAR5, 2 µM, 48 h) is “completely abolished”. For the same molecule, the “anti-apoptotic protein MCL1” value in assay [11] (OVCAR5, 48 h) is “downregulation”. The caspase-3 result in assay [11] (OVCAR5, 48 h) is “cleavage”. Moreover, the “phosphorylated histone H2AX (p-H2AX), DNA damage marker” value in assay [11] (OVCAR5, 48 h) is recorded as “appearance”.
